Measurements reported in PMC7395068, “The evolution of strategies to minimise the risk of human drug-induced liver injury (DILI) in drug discovery and development” (Archives of Toxicology, 2020).
Read-outs that look alike come from different tables or passages of the source.

Key:
[1] = Plasma free fraction (fu) and unbound Cmax (Cmax,u); assay type: in vitro ADME, human; settings: unbound plasma Cmax
Procedure: The prediction of DILI severity was evaluated further using the 3D combined HCI assays using plasma-free fraction. The majority of fu values were obtained from literature, when unavailable in-house prediction was utilised. Unbound plasma Cmax concentrations (Cmax,u) were derived by multiplying total plasma Cmax with the corresponding free fraction (fu) for each compound.

[2] = system: HepG2; set-up: method as in Albrecht 2019; settings: In vitro Assay; ref Albrecht 2019; cited from earlier work
[3] = cited from earlier work
[4] = system: primary human hepatocytes, NIH3T3 fibroblasts, BSEP, CYP3A4; settings: cited from earlier work
[5] = system: HepG2 cells; settings: cited from earlier work
[6] = system: THLE or HepG2 cells, isolated mitochondria, BSEP; settings: cited from earlier work
[7] = system: PHH; settings: cited from earlier work
[8] = system: hLiMTs; settings: cited from earlier work
[9] = system: PHH spheroids; settings: cited from earlier work
[10] = system: HepG2 C3A spheroid, BSEP, Glu/Gal in HepG2 cells, bioactivation; settings: cited from earlier work
[11] = read-out: Human plasma Cmax; total plasma Cmax.tot, median of 9 literature references; cited from earlier work
[12] = plasma free fraction; cited from earlier work
[13] = cited from earlier work; remark: listed apart in the source
[14] = system: PHH; settings: In vitro Assay; ref Albrecht 2019; cited from earlier work
[15] = system: THLE-Null and THLE-3A4 cells; settings: In vitro Assay; ref Gustafsson 2014; cited from earlier work
[16] = system: HepG2 cells, primary human hepatocytes; settings: In vitro Assay; ref Garside 2014; cited from earlier work
[17] = system: isolated mouse liver mitochondria; settings: In vitro Assay; ref Porceddu 2012; cited from earlier work
[18] = ref Chen 2011; cited from earlier work
[19] = system: rBsep; settings: In vitro Assay; ref Dawson 2012; cited from earlier work
[20] = system: hLiMTs; test: Combined HCI (HCS) and cellular ATP 3D assay in hLiMTs; settings: for AC50 / minimal effective concentration: Homo sapiens
[21] = system: HepaRG spheroids; test: Combined HCI (HCS) and cellular ATP 3D assay in HepaRG spheroids; settings: for AC50 / minimal effective concentration: Homo sapiens
[22] = In vitro Assay, ref Schadt 2015
[23] = In vitro Assay, ref Persson 2013
[24] = Modeled in vitro assays (cytotoxicity, mitochondrial dysfunction, BSEP), ref Aleo et al. 2019
[25] = In vitro Assay, ref Proctor 2017
[26] = Microtissue model structural based (HCI), combined HCS and ATP, MEC < 25 × Cmax.tot cut-off

Cc1ccc(C(=O)c2cc(O)c(O)c([N+](=O)[O-])c2)cc1 [tolcapone, reference compound]
47.6 µM: Cmax [11]
0.001: fu [12]
+VE (MEC < 25 × Cmax.tot cut-off): DILI prediction hLiMTs (HCS-MEC) [20, 26] | DILI prediction HepaRG spheroids (HCS-MEC) [21, 26]
21 µM: minimal effective concentration ([21]; HepaRG, read-out: HCS endpoint MEC)
-VE: MitoTox 3T3 [4, 22] | TDI CYP3A4 [4, 22] | Cluser analysis [5, 23] | DILI in vitro assay prediction, Persson (2013) ([5]; Structural based (HCI), HepG2, ref Persson et al. 2013) | PHH/100uM, Proctor (2017) ([7]; 2D PHH, ATP, IC50 threshold 100 µM, ref Proctor et al. 2017) | THLE-Null/3A4 [15] | in vitro data EC20<=2uM [17]
+VE: Cytotoxicity HepG2 48 hrs [2] | DILI +VE (5-8), DILI -VE (-4) ([3]; ref Chen 2016) | DILI in vitro assay prediction, Schadt (2015) ([4]; BSEP & Metabolism based, ref Schadt et al. 2015) | Cellular toxicity (3T3 cells) [4, 22] | Combined Assay [4, 22] | GSH adduct HML [4, 22] | Hepatocyte cellular toxicity [4, 22] | hBSEP inhibition [4, 22] | Structural based (HCI) [5, 23] | Partition Hybrid HRM Score ([6]; In vitro Assay, ref Aleo 2019) | Ro2 Hybrid HRM Score ([6]; In vitro Assay, ref Aleo 2019) | Bayesian Machine Learning DILI prediction, Williams (2019) ([10]; Bayesian modeling, ref Williams et al. 2019) | Bayesian Machine Learning ([10]; In vitro Assay, ref Williams 2019) | In vivo DILI ([13]; ref Albrecht 2019) | In vivo DILI ([13]; ref Aleo 2019) | In vivo DILI ([13]; ref Dawson 2012) | In vivo DILI ([13]; ref Garside 2014) | In vivo DILI ([13]; ref Gustafsson 2014) | In vivo DILI ([13]; ref Persson 2013) | In vivo DILI ([13]; ref Porceddu 2012) | In vivo DILI ([13]; ref Proctor 2017) | In vivo DILI ([13]; ref Schadt 2015) | In vivo DILI ([13]; ref Vorrink 2018) | In vivo DILI ([13]; ref Williams 2019) | Cytotoxicity PHH 48 hrs [14] | THLE-Null [15] | Cluster 1-6 +VE Assay [16] | in vitro data EC2<=1x Cmax [17] | Inhibition of rBsep cutoff<1& cmax u>.2 [19] | Inhibition of rBsep cutoff<3 [19]
24.1 µM: minimal effective concentration ([20]; read-out: HCS endpoint MEC)
+VE (IC50 < 100 × Cmax.tot): PHH/100xCmax, Proctor (2017) ([7]; 2D PHH, ATP, IC50 < 100 × Cmax.tot, ref Proctor et al. 2017) | hLiMTs/100xCmax, Proctor (2017) ([8]; hLiMTs, ATP, IC50 < 100 × Cmax.tot, ref Proctor et al. 2017)
Most: DILI severity category (Chen et al. [2016]) ([3]; LTKB DILIrank category, ref Chen et al. 2016) | DILI severity category (Chen 2016) ([3]; human DILI classification, LTKB DILIrank, ref Chen et al. 2016) | DILI severity category ([3]; human DILI severity, ref Chen et al.)
20.5 µM: minimal effective concentration ([21]; HepaRG, read-out: ATP endpoint MEC)
36.1 µM: AC50 ([21]; HepaRG, read-out: HCS endpoint AC50)
+VE (Rule of Two hybrid HRM Score ≥8): Rule of Two hybrid HRM Score ≥8, Aleo (2019) [6, 24]
-ve: hLiMTs <100x Avg Cmaxu ATP ([20]; hLiMTs, ATP endpoint, cut-off <100x Avg Cmaxu) | hLiMTs <100x Avg Cmaxu HCS ([20]; hLiMTs, HCS endpoints, cut-off <100x Avg Cmaxu) | hLiMTs <10 uM All ([20]; hLiMTs, all endpoints, cut-off <10 uM) | hLiMTs <100x Avg Cmaxu All ([20]; hLiMTs, all endpoints, cut-off <100x Avg Cmaxu) | HepaRG <100x Avg Cmaxu ATP ([21]; HepaRG, ATP endpoint, cut-off <100x Avg Cmaxu) | HepaRG <100x Avg Cmaxu HCS ([21]; HepaRG, HCS endpoints, cut-off <100x Avg Cmaxu) | HepaRG <10 uM All ([21]; HepaRG, all endpoints, cut-off <10 uM) | HepaRG <100x Avg Cmaxu All ([21]; HepaRG, all endpoints, cut-off <100x Avg Cmaxu)
+VE (Partition Hybrid HRM Score ≥8): Partition Hybrid HRM Score ≥8, Aleo (2019) [6, 24]
3: Assigned DILI category ([13]; Chen et al. 2016 or literature alignment, ref Chen et al. 2016)
161 µM: AC50 ([20]; read-out: ATP endpoint AC50)
+VE (Partition Hybrid HRM Score ≥4): Partition Hybrid HRM Score ≥4, Aleo (2019) [6, 24]
+VE (IC50 threshold of 100 µM): PHH ATP <100uM [7, 25] | hLiMTs ATP <100uM [8, 25] | hLiMTs/100uM, Proctor (2017) ([8]; hLiMTs, ATP, IC50 threshold 100 µM, ref Proctor et al. 2017)
0.048 µM: Human plasma Cmax,u [1]
8: DILI Score (FDA) (1-8) [18]
+VE (Rule of Two hybrid HRM Score ≥3): Rule of Two hybrid HRM Score ≥3, Aleo (2019) [6, 24]
114 µM: minimal effective concentration ([20]; read-out: ATP endpoint MEC)
60.8 µM: AC50 ([20]; read-out: HCS endpoint AC50)
+VE (IC20 < 20 × Cmax.tot cut-off): hLiMTs ATP <20 x Cmax ([9]; In vitro Assay, ref Vorrink 2018) | DILI in vitro assay prediction, Vorrink (2018) ([9]; PHH spheroids, ATP, 14 days, IC20 < 20 × Cmax.tot, ref Vorrink et al. 2018)
35.3 µM: AC50 ([21]; HepaRG, read-out: ATP endpoint AC50)
+ve: hLiMTs <25x Avg Cmax ATP ([20]; hLiMTs, ATP endpoint, cut-off <25x Avg Cmax) | hLiMTs <25x Avg Cmax HCS ([20]; hLiMTs, HCS endpoints, cut-off <25x Avg Cmax) | hLiMTs <25x Avg Cmax All ([20]; hLiMTs, all endpoints (ATP and HCS), cut-off <25x Avg Cmax) | hLiMTs Cmax max All ([20]; hLiMTs, all endpoints, Cmax max used) | hLiMTs Cmax min All ([20]; hLiMTs, all endpoints, Cmax min used) | HepaRG <25x Avg Cmax ATP ([21]; HepaRG, ATP endpoint, cut-off <25x Avg Cmax) | HepaRG <25x Avg Cmax HCS ([21]; HepaRG, HCS endpoints, cut-off <25x Avg Cmax) | HepaRG <25x Avg Cmax All ([21]; HepaRG, all endpoints (ATP and HCS), cut-off <25x Avg Cmax) | HepaRG Cmax max All ([21]; HepaRG, all endpoints, Cmax max used) | HepaRG Cmax min All ([21]; HepaRG, all endpoints, Cmax min used)
vMost-DILI-Concern: DILI severity category ([3]; ref Chen 2016)
